Holding throughout (assay type): biochemical
The target in one experiment is T1, 15-lipoxygenase (Glycine max, UniProt P08170).
T1 construct: 15-lipoxygenase obtained from soybean; from tissue; host or cells: soybean
T1 sequence (P08170 1-839): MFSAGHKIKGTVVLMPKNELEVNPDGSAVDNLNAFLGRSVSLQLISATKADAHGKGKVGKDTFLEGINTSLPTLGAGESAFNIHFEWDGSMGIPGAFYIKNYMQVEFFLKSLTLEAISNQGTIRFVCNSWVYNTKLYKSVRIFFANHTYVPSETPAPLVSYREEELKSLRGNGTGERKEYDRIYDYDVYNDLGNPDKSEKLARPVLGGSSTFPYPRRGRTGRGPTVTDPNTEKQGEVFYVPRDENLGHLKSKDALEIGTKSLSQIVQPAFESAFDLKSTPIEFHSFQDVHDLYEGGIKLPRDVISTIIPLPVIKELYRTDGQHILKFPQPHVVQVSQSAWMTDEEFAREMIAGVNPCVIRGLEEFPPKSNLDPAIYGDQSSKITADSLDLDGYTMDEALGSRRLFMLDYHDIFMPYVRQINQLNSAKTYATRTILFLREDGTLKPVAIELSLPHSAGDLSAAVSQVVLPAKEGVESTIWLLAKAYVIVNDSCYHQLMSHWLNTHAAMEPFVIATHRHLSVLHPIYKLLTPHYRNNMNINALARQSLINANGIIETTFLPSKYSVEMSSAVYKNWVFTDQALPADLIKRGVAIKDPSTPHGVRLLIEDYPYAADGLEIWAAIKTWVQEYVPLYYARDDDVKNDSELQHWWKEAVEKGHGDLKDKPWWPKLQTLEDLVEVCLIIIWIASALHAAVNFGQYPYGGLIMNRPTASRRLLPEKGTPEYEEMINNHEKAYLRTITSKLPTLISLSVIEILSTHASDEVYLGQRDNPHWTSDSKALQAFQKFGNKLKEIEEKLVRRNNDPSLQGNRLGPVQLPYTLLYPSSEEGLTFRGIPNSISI
The experiment can be described thus: 15-lipoxygenase inhibition (15-lipoxygenase obtained from soybean). The settings on record: for inhibition at 10 µM: read-out: % Inhibition at Indicated Concentration, 15-lipoxygenase, 10 uM; for inhibition at 100 µM: read-out: % Inhibition at Indicated Concentration, 15-lipoxygenase, 100 uM. As for the experimental part: (§1) The compounds of this invention are potent inhibitors of 5-, 12- and 15-lipoxygenase. An assay to determine 5-lipoxygenase activity was performed in incubations containing various concentrations of the test compound and the 20,000 G supernatant from 7.5×10^6 homogenized RBL-1 cells. Reactions were initiated by the addition of radiolabeled arachidonic acid and terminated by acidification and ether extraction. Reaction products were separated from nonconverted substrate by thin layer chromatography and measured by liquid scintillatiton spectroscopy. Inhibition of 5-lipoxygenase activity was calculated as the ratio of the amounts of product formed in the presence and absence of inhibitor.
(§2) The inhibitory activities of the compounds of this invention against 12- and 15-lipoxygenase can be determined in the foregoing assay in which 12-lipoxygenase obtained from human platelets, or 15-lipoxygenase obtained from soybean, is substituted for the 5-lipoxygenase-containing cell supernatant fraction.

A further experiment has as its target T2, 12-lipoxygenase (Homo sapiens, UniProt P18054).
T2 construct: 12-lipoxygenase obtained from human platelets; from tissue; host or cells: human platelets
T2 sequence (P18054 1-663): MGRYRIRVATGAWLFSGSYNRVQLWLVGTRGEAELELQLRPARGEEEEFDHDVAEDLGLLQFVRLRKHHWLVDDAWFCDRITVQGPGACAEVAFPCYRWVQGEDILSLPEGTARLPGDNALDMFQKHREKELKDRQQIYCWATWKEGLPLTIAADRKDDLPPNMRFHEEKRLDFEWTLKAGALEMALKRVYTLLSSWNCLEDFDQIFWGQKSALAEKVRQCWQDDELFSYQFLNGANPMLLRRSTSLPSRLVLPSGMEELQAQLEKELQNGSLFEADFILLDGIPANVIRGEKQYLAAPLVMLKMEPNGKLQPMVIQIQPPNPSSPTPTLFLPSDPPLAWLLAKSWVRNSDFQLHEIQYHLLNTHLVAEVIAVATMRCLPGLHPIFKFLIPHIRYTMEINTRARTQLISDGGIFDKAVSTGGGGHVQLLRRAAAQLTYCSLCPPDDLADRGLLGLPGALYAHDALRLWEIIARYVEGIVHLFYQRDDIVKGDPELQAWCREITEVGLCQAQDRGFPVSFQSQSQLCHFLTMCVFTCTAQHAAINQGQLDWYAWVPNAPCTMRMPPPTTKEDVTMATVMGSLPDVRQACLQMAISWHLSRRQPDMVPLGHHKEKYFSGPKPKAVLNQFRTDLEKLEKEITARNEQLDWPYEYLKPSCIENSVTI
The experiment can be described thus: 12-lipoxygenase inhibition (12-lipoxygenase obtained from human platelets). Conditions: for inhibition at 10 µM: read-out: % Inhibition at Indicated Concentration, 12-lipoxygenase, 10 uM; for inhibition at 100 µM: read-out: % Inhibition at Indicated Concentration, 12-lipoxygenase, 100 uM. As for the experimental part:
as §1, §2

In the next experiment the target is T3, 5-lipoxygenase (Rattus norvegicus, UniProt P12527).
T3 construct: 20,000 G supernatant from 7.5×10^6 homogenized RBL-1 cells; endogenous in cells; host or cells: RBL-1 cells (20,000 G supernatant of homogenate)
T3 sequence (P12527 1-673): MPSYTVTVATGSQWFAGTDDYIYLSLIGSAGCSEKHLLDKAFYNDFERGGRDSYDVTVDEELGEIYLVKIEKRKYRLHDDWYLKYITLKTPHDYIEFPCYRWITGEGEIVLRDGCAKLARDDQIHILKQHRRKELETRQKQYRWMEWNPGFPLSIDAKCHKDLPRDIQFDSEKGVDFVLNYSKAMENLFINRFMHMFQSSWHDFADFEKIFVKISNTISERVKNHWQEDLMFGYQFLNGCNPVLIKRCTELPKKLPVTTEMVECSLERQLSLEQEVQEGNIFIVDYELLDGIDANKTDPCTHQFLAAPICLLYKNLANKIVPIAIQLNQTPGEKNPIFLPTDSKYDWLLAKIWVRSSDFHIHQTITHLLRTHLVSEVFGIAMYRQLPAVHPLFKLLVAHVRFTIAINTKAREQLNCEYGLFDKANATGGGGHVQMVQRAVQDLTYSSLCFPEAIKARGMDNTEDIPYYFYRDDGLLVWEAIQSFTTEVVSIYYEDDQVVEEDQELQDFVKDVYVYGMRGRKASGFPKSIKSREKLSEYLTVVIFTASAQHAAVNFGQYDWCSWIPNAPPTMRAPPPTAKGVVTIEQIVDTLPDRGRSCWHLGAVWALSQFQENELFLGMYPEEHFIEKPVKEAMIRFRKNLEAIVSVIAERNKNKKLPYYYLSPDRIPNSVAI
The experiment can be described thus: 5-Lipoxygenase IC50 determination (20,000 G supernatant from homogenized RBL-1 cells, radiolabeled arachidonic acid). Conditions: RBL-1 cell 20,000 G supernatant; linear regression of % inhibition vs log concentration. As for the experimental part: Reactions were initiated by the addition of radiolabeled arachidonic acid and terminated by acidification and ether extraction. Reaction products were separated from nonconverted substrate by thin layer chromatography and measured by liquid scintillatiton spectroscopy. Inhibition of 5-lipoxygenase activity was calculated as the ratio of the amounts of product formed in the presence and absence of inhibitor.

As for `O=C(NO)c1ccc(-c2ccccc2)cc1` [Example 7, 4-biphenyl hydroxamic acid], the inhibition at 10 µM on 15-lipoxygenase came to 0%; on 12-lipoxygenase, 86%. Further, the inhibition at 100 µM was 30% at 15-lipoxygenase and 97% at 12-lipoxygenase. The molecule also gave a half-inhibitory concentration (IC50) against 5-lipoxygenase of 4100 nM.

For `O=C(NO)c1cccc(-c2ccccc2)c1` [Example 8, 3-biphenyl hydroxamic acid], on 15-lipoxygenase, the inhibition at 10 µM stood at 33% and the inhibition at 100 µM was found to be 33%. At 5-lipoxygenase, this molecule yielded an IC50 of 6000 nM.

With `CN(O)C(=O)C=Cc1cccc(-c2ccccc2)c1` [Example 2, N-methyl-3-(3-biphenyl)-acrylohydroxamic acid], on 15-lipoxygenase, the inhibition at 10 µM was found to be 43% and the inhibition at 100 µM is 85%. Moreover, at 12-lipoxygenase, the inhibition at 10 µM stood at 99% and the inhibition at 100 µM is 96%.

The molecule `O=C(NO)c1ccc2c(ccc3ccccc32)c1` [Example 12, 2-Phenanthrylhydroxamic acid] showed an IC50 against 5-lipoxygenase of 1900 nM.

As to `CN(O)C(=O)C=Cc1ccc(-c2ccccc2)cc1` [Example 1, N-Methyl 3-(4-biphenyl)acrylohydroxamic acid], at 15-lipoxygenase, the inhibition at 10 µM is 52% and the inhibition at 100 µM was 74%. Also, on 12-lipoxygenase, the inhibition at 10 µM is 63% and the inhibition at 100 µM is 68%.

In the case of `O=C(NO)c1ccc2ccc3ccccc3c2c1` [Example 13, 3-Phenanthryl hydroxamic acid], at 15-lipoxygenase, the inhibition at 10 µM came to 25% and the inhibition at 100 µM was 39%. In addition, the half-inhibitory concentration (IC50) at 5-lipoxygenase was 1200 nM.
